Data set [1] has as its system H22. Briefly: Antitumor activity against H22 cells implanted in mouse at 30 mg/kg, ip. It counts as functional. The following applies: route intraperitoneal; for inhibition in vivo at 30 mg/kg: Mus musculus, H22, ip.
For data set [2], the system named is CCRF S-180. Briefly: Antitumor activity against S180 cells implanted in mouse at 30 mg/kg, ip. It counts as functional. Particulars: route intraperitoneal; for inhibition in vivo at 30 mg/kg: Mus musculus, CCRF S-180, ip.
The test system of data set [3] is CCRF S-180. Briefly: Antitumor activity against S180 cells implanted in mouse at 60 mg/kg, ip. It counts as functional. The following applies: CCRF S-180, ip, route intraperitoneal.
In data set [4] the test system is H22. As to the kind of experiment: Antitumor activity against H22 cells implanted in mouse at 15 mg/kg, ip. It counts as functional. The following applies: route intraperitoneal.
The subject of data set [5] is CCRF S-180. Briefly: Antitumor activity against S180 cells implanted in mouse at 15 mg/kg, ip. It counts as functional. The following applies: CCRF S-180, ip, route intraperitoneal.
A short description of data set [6]: Toxicity in ip dosed mouse. The following applies: in vivo. It counts as organism-based.
Data set [7] deals with H22. As to the kind of experiment: Antitumor activity against H22 cells implanted in mouse at 60 mg/kg, ip. It counts as functional. The following applies: route intraperitoneal.

The record followed here is ChEMBL document CHEMBL1138959, “Novel class of cyclophosphamide prodrug: cyclophosphamide spiropiperaziniums (CPSP)” (Bioorg Med Chem Lett, 2006).

For orientation: Inhibition means the drop in the measured response relative to a control, in per cent. Read a low Inhibition as little suppression. As usually defined, the inhibition in vivo is the relative decrease from the control value, in per cent. A word on the LD50: it is the dose expected to kill half of the subjects tested. Low readings indicate greater toxicity, high ones lower toxicity.

Consider `CN1CC[N+]2(CC1)CCN(P1(=O)NCCCO1)CC2.[Cl-]` (centres undefined), for which the Inhibition is 41.66% in the data set on H22 [1] and 42.31% in the data set with CCRF S-180 [2]. Moreover, the inhibition in vivo at 60 mg/kg with CCRF S-180 [3] is 55.2%; in the data set with H22 [7] it was 38%. The inhibition in vivo at 15 mg/kg in the data set with H22 [4] was 24.4%; in the data set with CCRF S-180 [5], 37.5%. The LD50 in data set [6] turned out to be 1200 mg/kg.
Turning to `CC1C[N+]2(CCN(P3(=O)NCCCO3)CC2)CC(C)O1` (centres undefined), the figures for the inhibition in vivo at 30 mg/kg with H22 [1] and in the data set with CCRF S-180 [2] were 20.6% and 46.6%, respectively.
For `CN1CC[N+]2(CC1)CCN(P1(=O)NCCCO1)CC2.[I-]` (centres undefined), the Inhibition in the data set with H22 [1] turned out to be 16.19%; with CCRF S-180 [2], 29.41%.
In the same order, the values of `CN1CC[N+]2(CC1)CCN(P1(=O)NCCCO1)CC2.[Br-]` (centres undefined) are 11.6% and 18.72%.
As to `CC1CC[N+]2(CC1)CCN(P1(=O)NCCCO1)CC2` (centres undefined), the figures for the inhibition in vivo at 30 mg/kg in the data set with H22 [1] and in the data set with CCRF S-180 [2] were 32.2% and -13.3%, respectively.
In the same order, the values of `C[N+]1(Cc2ccccc2)CCN(P2(=O)NCCCO2)CC1` (centres undefined) are -6.63% and -3.28%.
For `O=P1(N2CC[N+]3(CCCCCC3)CC2)NCCCO1.[Cl-]` (centres undefined), the inhibition in vivo at 30 mg/kg is 48.4% in the data set on H22 [1] and 36% with CCRF S-180 [2]. Besides, the inhibition in vivo at 60 mg/kg in the data set on CCRF S-180 [3] was found to be 53.4%; with H22 [7], 51.3%. For the same compound, the inhibition in vivo at 15 mg/kg with H22 [4] amounted to 17.2%; in the data set with CCRF S-180 [5], 38.2%. The compound further registered an LD50 in data set [6] of 239 mg/kg.
`O=P1(N2CC[N+]3(CCCCC3)CC2)NCCCO1` (centres undefined): the figures for the inhibition in vivo at 30 mg/kg with H22 [1] and with CCRF S-180 [2] were 12.8% and 39.9%, respectively.
As for `O=P1(N2CC[N+]3(CCN(Cc4ccccc4)CC3)CC2)NCCCO1` (centres undefined), the inhibition in vivo at 30 mg/kg with CCRF S-180 [2] stood at 33.7%.
Take `C[N+]1(C)CCN(P2(=O)NCCCO2)CC1` (centres undefined): the inhibition in vivo at 30 mg/kg is 28.8% in the data set with H22 [1] and 33.5% in the data set on CCRF S-180 [2].
For `O=P1(N2CC[N+]3(CCOCC3)CC2)NCCCO1` (centres undefined), the results for the inhibition in vivo at 30 mg/kg in the data set with H22 [1] and in the data set on CCRF S-180 [2] were 32.5% and -27.6%, respectively.
In the same order, the values of `O=P1(N2CC[N+]3(CCNCC3)CC2)NCCCO1` (centres undefined) are 8.64% and 10.7%.
For `O=P1(N2CC[N+]3(CCCC3)CC2)NCCCO1` (centres undefined), the inhibition in vivo at 30 mg/kg with H22 [1] is 17.3%; in the data set on CCRF S-180 [2], 26.7%.
Consider `O=P1(N2CC[N+]3(CCc4ccccc4C3)CC2)NCCCO1` (centres undefined), for which the inhibition in vivo at 30 mg/kg in the data set on CCRF S-180 [2] is 18.9%.
For `O=P1(N(CCCl)CCCl)NCCCO1` (centres undefined) [CYCLOPHOSPHAMIDE ANHYDROUS], the inhibition in vivo at 30 mg/kg in the data set on H22 [1] turned out to be 72%; in the data set with CCRF S-180 [2], 72.9%. The compound also showed an LD50 in data set [6] of 387 mg/kg.
